In patent US11117883B2 (Ariad Pharmaceuticals, Inc., priority 2016, dated 2021) one finds GI50 data, which are given here for 20 compounds.

Each structure is given as a SMILES string. A value given as a limit tells only on which side of the number the result lay.

As a reminder, the GI50 is the concentration that inhibits growth by half. A high value points to less potent growth inhibition.

Common to all, as to test: c-Kit assay: Ba/F3 KIT mutant viability (Cell Titer-Glo, 72 hours)
Holding throughout (assay type): cell-based
(Cellular ATP, detected with luciferase, serves as a proxy for viable cell number.)

In one test the target is T1, BAF3 FL KIT EX11DEL (Homo sapiens, UniProt P10721, cells depend on it, form not given).
T1 construct: "BAF3 FL KIT EX11DEL"
Particulars: viability after 72 hours. As for the experimental part: (§1) KIT cDNAs were synthesized by GenScript and cloned into the pLVX-IRES-Puro vector (Clontech). Viral particles were produced by transfecting pLVX-IRES-puro vectors containing KIT mutant genes into HEK293 cells (Invitrogen) using the Trans-Lentiviral ORF Packaging Kit (Thermo Scientific). 48 hours post-transfection, virus-containing supernatants were harvested and incubated for another 48-72 hours with parental Ba/F3 cells (DSMZ) in the presence of 10 ng/mL […] (R&D Systems). Transduced Ba/F3 cells were then selected by IL-3 withdrawal and puromycin (0.5-1 μg/mL, Invitrogen).
(§2) Cell lines (i.e., EX11DEL, EX11DEL/D816H, EX11DEL/T670I, and EX11DEL/V654A) were plated into 384 well plates using RPMI 1640 supplemented with 10% FBS at densities that produced linear growth and incubated at 37° C. in 5% (v/v) CO2. Cells were treated with eight concentrations of compound over a 4-fold dilution (10 μM to 0.61 nM) and viability was assessed using Cell Titer-Glo assay (Promega) after 72 hours. Data were plotted as percent viability relative to vehicle-treated cells. Dose-responses curves were generated and used to calculate IC50 values.

The target in test [1] is T2, BAF3 FL KIT EX11DEL/D816H (Homo sapiens, UniProt P10721, D816H, cells depend on it, form not given).
T2 construct: "BAF3 FL KIT EX11DEL/ D816H"
Conditions: viability after 72 hours. As for the experimental part:
as §1, §2

For test [2], the target named is T3, BAF3 FL KIT EX11DEL/T6701 (Homo sapiens, UniProt P10721, T670I, cells depend on it, form not given).
T3 construct: "BAF3 FL KIT EX11DEL/ T6701"
Conditions: EX11DEL/T6701, viability after 72 hours. As for the experimental part:
as §1, §2

In test [3] the target is T4, BAF3 FL KIT EX11DEL/V654A (Homo sapiens, UniProt P10721, V654A, cells depend on it, form not given).
T4 construct: "BAF3 FL KIT EX11DEL/ V654A"
Particulars: viability after 72 hours. How it is done: as §1, §2

T4 sequence (P10721 with tags, fused parts or gaps DEL557-558/V654A, form open): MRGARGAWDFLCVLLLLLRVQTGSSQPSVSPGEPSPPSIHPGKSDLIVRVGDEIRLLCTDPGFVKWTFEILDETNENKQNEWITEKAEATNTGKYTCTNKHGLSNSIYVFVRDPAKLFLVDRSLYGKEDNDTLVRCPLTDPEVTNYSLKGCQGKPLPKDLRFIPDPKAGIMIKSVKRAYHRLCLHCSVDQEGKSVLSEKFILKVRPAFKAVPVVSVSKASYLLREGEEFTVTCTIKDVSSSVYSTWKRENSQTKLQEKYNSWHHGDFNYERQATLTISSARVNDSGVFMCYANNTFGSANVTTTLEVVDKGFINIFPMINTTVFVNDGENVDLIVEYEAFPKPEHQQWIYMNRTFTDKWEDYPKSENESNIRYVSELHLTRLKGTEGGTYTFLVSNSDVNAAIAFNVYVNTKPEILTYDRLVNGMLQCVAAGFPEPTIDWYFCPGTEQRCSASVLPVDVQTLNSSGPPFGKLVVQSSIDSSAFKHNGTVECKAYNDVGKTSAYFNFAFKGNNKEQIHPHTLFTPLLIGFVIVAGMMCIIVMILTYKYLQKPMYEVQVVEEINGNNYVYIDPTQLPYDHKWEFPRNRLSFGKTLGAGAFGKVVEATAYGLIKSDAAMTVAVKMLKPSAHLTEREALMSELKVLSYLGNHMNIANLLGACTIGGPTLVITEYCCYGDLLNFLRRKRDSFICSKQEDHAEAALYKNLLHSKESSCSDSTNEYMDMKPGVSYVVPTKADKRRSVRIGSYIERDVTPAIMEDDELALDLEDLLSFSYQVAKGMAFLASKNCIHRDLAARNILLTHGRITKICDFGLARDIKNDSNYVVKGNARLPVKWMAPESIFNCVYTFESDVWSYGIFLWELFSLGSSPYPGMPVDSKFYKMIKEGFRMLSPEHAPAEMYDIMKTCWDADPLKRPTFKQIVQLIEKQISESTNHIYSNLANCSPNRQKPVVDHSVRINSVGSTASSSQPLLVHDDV
T2 sequence (P10721 with tags, fused parts or gaps DEL557-558/D816H, form open): as the sequence (P10721 with tags, fused parts or gaps DEL557-558/V654A, form open) above, with A652V, D814H counted along it
T3 sequence (P10721 with tags, fused parts or gaps DEL557-558/T670I, form open): as the sequence (P10721 with tags, fused parts or gaps DEL557-558/V654A, form open) above, with A652V, T668I counted along it
T1 sequence (P10721 with tags, fused parts or gaps DEL557-558): as the sequence (P10721 with tags, fused parts or gaps DEL557-558/V654A, form open) above, with A652V counted along it

On to `CNC(=O)Cn1cnc2cc(C#Cc3cc(C(=O)Nc4cc(C(F)(F)F)ccn4)ccc3C)ccc21` [Compound I-1, 4-Methyl-3-((1-(2-(methylamino)-2-oxoethyl)-1H-benzo[d]imidazol-5-yl)ethynyl)-N-(4-(trifluoromethyl)pyridin-2-yl)benzamide], for which the GI50 at BAF3 FL KIT EX11DEL is below 10 nM; in test [1], 100 to 10000 nM; in test [2], 100 to 10000 nM; in test [3], 100 to 10000 nM.

On to `Cc1ccc(C(=O)Nc2cc(C(F)(F)F)ccn2)cc1C#Cc1ccc2[nH]cnc2c1` [Compound I-2, 3-((1H-benzo[d]imidazol-5-yl)ethynyl)-4-methyl-N-(4-(trifluoromethyl)pyridin-2-yl)benzamide], for which the GI50 at BAF3 FL KIT EX11DEL is below 10 nM; in test [1], 50 to 100 nM; in test [2], 10 to 50 nM; in test [3], 10 to 50 nM.

With `Cc1ccc(C(=O)Nc2cc(C(F)(F)F)ccn2)cc1C#Cc1ccc2c(c1)ncn2CCN(C)C` [Compound I-3, 3-((1-(2-(dimethylamino)ethyl)-1H-benzo[d]imidazol-5-yl)ethynyl)-4-methyl-N-(4-(trifluoromethyl)pyridin-2-yl)benzamide], the concentration for 50% growth inhibition (GI50) at BAF3 FL KIT EX11DEL lay in the range of 50 to 100 nM; in test [1], 100 to 10000 nM; in test [2] it was 100 to 10000 nM; in test [3], 100 to 10000 nM.

`COCCn1cnc2cc(C#Cc3cc(C(=O)Nc4cc(C(F)(F)F)ccn4)ccc3C)ccc21` [Compound I-4, 3-((1-(2-methoxyethyl)-1H-benzo[d]imidazol-5-yl)ethynyl)-4-methyl-N-(4-(trifluoromethyl)pyridin-2-yl)benzamide]: the 50% growth inhibitory concentration (GI50) was below 10 nM on BAF3 FL KIT EX11DEL, 100 to 10000 nM in test [1], 50 to 100 nM in test [2] and 50 to 100 nM in test [3].

As to `Cc1ccc(C(=O)Nc2cc(C(F)(F)F)ccn2)cc1C#Cc1ccc2c(c1)ncn2CCN1CCOCC1` [Compound I-5, 4-methyl-3-((1-(2-morpholinoethyl)-1H-benzo[d]imidazol-5-yl)ethynyl)-N-(4-(trifluoromethyl)pyridin-2-yl)benzamide], the 50% growth inhibitory concentration (GI50) on BAF3 FL KIT EX11DEL lay within 50 to 100 nM; in test [1], 100 to 10000 nM; in test [2], 100 to 10000 nM; in test [3], 100 to 10000 nM.

`Cc1ccc(C(=O)Nc2cc(C(F)(F)F)ccn2)cc1C#Cc1ccc2c(c1)ncn2CCCN(C)C` [Compound I-6, 3-((1-(3-(dimethylamino)propyl)-1H-benzo[d]imidazol-5-yl)ethynyl)-4-methyl-N-(4-(trifluoromethyl)pyridin-2-yl)benzamide]: the GI50 was 10 to 50 nM on BAF3 FL KIT EX11DEL, 100 to 10000 nM in test [1], 50 to 100 nM in test [2] and 100 to 10000 nM in test [3].

Consider `CCn1cnc2cc(C#Cc3cc(C(=O)Nc4cc(C(F)(F)F)ccn4)ccc3C)ccc21` [Compound I-7, 3-((1-ethyl-H-benzo[d]imidazol-5-yl)ethynyl)-4-methyl-N-(4-(trifluoromethyl)pyridin-2-yl)benzamide], for which the GI50 fell in the range of 10 to 50 nM on BAF3 FL KIT EX11DEL, 100 to 10000 nM in test [1], 50 to 100 nM in test [2] and 100 to 10000 nM in test [3].

As to `Cc1ccc(C(=O)Nc2cc(C(F)(F)F)ccn2)cc1C#Cc1ccc2c(c1)ncn2C` [Compound I-8, 4-methyl-3-((1-methyl-1H-benzo[d]imidazol-5-yl)ethynyl)-N-(4-(trifluoromethyl)pyridin-2-yl)benzamide], the GI50 at BAF3 FL KIT EX11DEL was in the range of 10 to 50 nM; in test [1], 50 to 100 nM; in test [2], 10 to 50 nM; in test [3], 10 to 50 nM.

Consider `Cc1ccc(C(=O)Nc2cc(C(F)(F)F)ccn2)cc1C#Cc1ccc2nc(N)[nH]c2c1` [Compound I-10, 3-((2-amino-1H-benzo[d]imidazol-6-yl)ethynyl)-4-methyl-N-(4-(trifluoromethyl)pyridin-2-yl)benzamide], for which the GI50 at BAF3 FL KIT EX11DEL fell in the range of 10 to 50 nM; in test [1], 100 to 10000 nM; in test [2] it was 100 to 10000 nM; in test [3], 100 to 10000 nM.

Take `Cc1ccc(C(=O)Nc2cc(C(F)(F)F)ccn2)cc1C#Cc1ccc2ncn(C)c2c1` [Compound I-11, 4-methyl-3-((1-methyl-1H-benzo[d]imidazol-6-yl)ethynyl)-N-(4-(trifluoromethyl)pyridin-2-yl)benzamide]: the GI50 (at BAF3 FL KIT EX11DEL; in test [1]; in test [2]; in test [3]) was 100 to 10000 nM in each case.

As to `Cc1ccc(C(=O)Nc2cc(C(F)(F)F)ccn2)cc1C#Cc1ccc2c(c1)ncn2Cc1cccnc1` [Compound I-12, 4-methyl-3-((1-(pyridin-3-ylmethyl)-1H-benzo[d]imidazol-5-yl)ethynyl)-N-(4-(trifluoromethyl)pyridin-2-yl)benzamide], the GI50 is 10 to 50 nM on BAF3 FL KIT EX11DEL, 100 to 10000 nM in test [1], 100 to 10000 nM in test [2] and 100 to 10000 nM in test [3].

For the compound `Cc1ccc(C(=O)Nc2cc(C(F)(F)F)ccn2)cc1C#Cc1ccc2c(c1)ncn2C1CC1` [Compound I-13, 3-((1-cyclopropyl-1H-benzo[d]imidazol-5-yl)ethynyl)-4-methyl-N-(4-(trifluoromethyl)pyridin-2-yl)benzamide], the GI50 on BAF3 FL KIT EX11DEL fell in the range of 10 to 50 nM; in test [1] it was 100 to 10000 nM; in test [2] it was 100 to 10000 nM; in test [3], 100 to 10000 nM.

With `Cc1ccc(C(=O)Nc2cc(C(F)(F)F)ccn2)cc1C#Cc1ccc2c(c1)ncn2-c1cccc(N2CCN(C)CC2)c1` [Compound I-14, 4-methyl-3-((1-(3-(4-methylpiperazin-1-yl)phenyl)-1H-benzo[d]imidazol-5-yl)ethynyl)-N-(4-(trifluoromethyl)pyridin-2-yl)benzamide], the GI50 lay within 50 to 100 nM at BAF3 FL KIT EX11DEL, 100 to 10000 nM in test [1], 100 to 10000 nM in test [2] and 100 to 10000 nM in test [3].

For `Cc1ccc(C(=O)Nc2cc(C(F)(F)F)ccn2)cc1C#Cc1ccc2c(c1)ncn2-c1ccc(N2CCN(C)CC2)cc1` [Compound I-15, 4-methyl-3-((1-(4-(4-methylpiperazin-1-yl)phenyl)-1H-benzo[d]imidazol-5-yl)ethynyl)-N-(4-(trifluoromethyl)pyridin-2-yl)benzamide], the GI50 on BAF3 FL KIT EX11DEL fell in the range of 50 to 100 nM; in test [1], 100 to 10000 nM; in test [2], 100 to 10000 nM; in test [3], 100 to 10000 nM.

Take `Cc1ccc(C(=O)Nc2cc(C(F)(F)F)ccn2)cc1C#Cc1ccc2c(c1)ncn2-c1cnn(C)c1` [Compound I-17, 4-methyl-3-((1-(1-methyl-1H-pyrazol-4-yl)-1H-benzo[d]imidazol-5-yl)ethynyl)-N-(4-(trifluoromethyl)pyridin-2-yl)benzamide]: the GI50 at BAF3 FL KIT EX11DEL was 10 to 50 nM; in test [1] it was 50 to 100 nM; in test [2] it was 10 to 50 nM; in test [3] it was 10 to 50 nM.

For the compound `Cc1ccc(NC(=O)c2ccc(CN3CCN(C)CC3)c(C(F)(F)F)c2)cc1C#Cc1ccc2c(c1)ncn2C` [Compound I-18, N-(4-methyl-3-((1-methyl-1H-benzo[d]imidazol-5-yl)ethynyl)phenyl)-4-((4-methylpiperazin-1-yl)methyl)-3-(trifluoromethyl)benzamide], the concentration for 50% growth inhibition (GI50) (on BAF3 FL KIT EX11DEL; in test [1]; in test [2]; in test [3]) was 100 to 10000 nM in each case.

`Cc1ccc(C(=O)Nc2cc(C(F)(F)F)ccn2)cc1C#Cc1ccc2c(c1)ncn2-c1cnn(C)c1` [Compound I-19, 4-methyl-3-((1-(1-methyl-1H-pyrazol-4-yl)-1H-benzo[d]imidazol-5-yl)ethynyl)-N-(4-(trifluoromethyl)pyridin-2-yl)benzamide]: the GI50 is below 10 nM on BAF3 FL KIT EX11DEL, 10 to 50 nM in test [1], below 10 nM in test [2] and 10 to 50 nM in test [3].

Regarding `Cc1ccc(C(=O)Nc2cc(C(F)(F)F)ccn2)cc1C#Cc1ccc2c(c1)ncn2C1CCN(C)CC1` [Compound I-20, 4-methyl-3-((1-(1-methylpiperidin-4-yl)-1H-benzo[d]imidazol-5-yl)ethynyl)-N-(4-(trifluoromethyl)pyridin-2-yl)benzamide], the GI50 at BAF3 FL KIT EX11DEL was in the range of 10 to 50 nM; in test [1], 100 to 10000 nM; in test [2], 100 to 10000 nM; in test [3] it was 100 to 10000 nM.

As to `Cc1ccc(C(=O)Nc2cc(C(F)(F)F)ccn2)cc1C#Cc1ccc2c(c1)ncn2-c1ccccc1` [Compound I-21, 4-methyl-3-((1-phenyl-1H-benzo[d]imidazol-5-yl)ethynyl)-N-(4-(trifluoromethyl)pyridin-2-yl)benzamide], the GI50 (at BAF3 FL KIT EX11DEL; in test [1]; in test [2]; in test [3]) was 100 to 10000 nM each time.

On to `Cc1ccc(C(=O)Nc2ccc(N3CCN(C)CC3)c(C(F)(F)F)c2)cc1C#Cc1ccc2c(c1)ncn2C` [Compound I-22, 4-methyl-3-((1-methyl-1H-benzo[d]imidazol-5-yl)ethynyl)-N-(4-(4-methylpiperazin-1-yl)-3-(trifluoromethyl)phenyl)benzamide], for which the GI50 (on BAF3 FL KIT EX11DEL; in test [1]; in test [2]; in test [3]) was 100 to 10000 nM in each case.
